Values after ≈ are worked out from the molar mass of the structure shown.
Tests used:
[1] = Metabolic stability in human liver microsomes assessed as half life at 1.25 uM preincubated for 5 mins followed by NADPH addition measured upto 120 mins by LC-MS/MS analysis; assay type: ADME, Microsome; settings: time < 125 min
[2] = Metabolic stability in mouse liver microsomes assessed as intrinsic clearance at 1.25 uM preincubated for 5 mins followed by NADPH addition measured upto 120 mins by LC-MS/MS analysis; assay type: ADME, Microsome; settings: time < 125 min, read-out: CLH
[3] = Metabolic stability in mouse liver microsomes assessed as hepatic clearance at 1.25 uM preincubated for 5 mins followed by NADPH addition measured upto 120 mins by LC-MS/MS analysis; assay type: ADME, Microsome; settings: time < 125 min
[4] = biological target: T1, Nucleotide-binding oligomerization domain-containing protein 1 (Mus musculus, UniProt Q8BHB0); assay: Antagonist activity at mouse NOD1 expressed in HEK-Blue cells assessed as decrease in SEAP secretion incubated for 3 hrs followed by C12-iE-DAP stimulation for 20 hrs by spectrophotometry; assay type: cell-based, HEK-Blue mNOD1
T1 sequence (Q8BHB0 whole entry): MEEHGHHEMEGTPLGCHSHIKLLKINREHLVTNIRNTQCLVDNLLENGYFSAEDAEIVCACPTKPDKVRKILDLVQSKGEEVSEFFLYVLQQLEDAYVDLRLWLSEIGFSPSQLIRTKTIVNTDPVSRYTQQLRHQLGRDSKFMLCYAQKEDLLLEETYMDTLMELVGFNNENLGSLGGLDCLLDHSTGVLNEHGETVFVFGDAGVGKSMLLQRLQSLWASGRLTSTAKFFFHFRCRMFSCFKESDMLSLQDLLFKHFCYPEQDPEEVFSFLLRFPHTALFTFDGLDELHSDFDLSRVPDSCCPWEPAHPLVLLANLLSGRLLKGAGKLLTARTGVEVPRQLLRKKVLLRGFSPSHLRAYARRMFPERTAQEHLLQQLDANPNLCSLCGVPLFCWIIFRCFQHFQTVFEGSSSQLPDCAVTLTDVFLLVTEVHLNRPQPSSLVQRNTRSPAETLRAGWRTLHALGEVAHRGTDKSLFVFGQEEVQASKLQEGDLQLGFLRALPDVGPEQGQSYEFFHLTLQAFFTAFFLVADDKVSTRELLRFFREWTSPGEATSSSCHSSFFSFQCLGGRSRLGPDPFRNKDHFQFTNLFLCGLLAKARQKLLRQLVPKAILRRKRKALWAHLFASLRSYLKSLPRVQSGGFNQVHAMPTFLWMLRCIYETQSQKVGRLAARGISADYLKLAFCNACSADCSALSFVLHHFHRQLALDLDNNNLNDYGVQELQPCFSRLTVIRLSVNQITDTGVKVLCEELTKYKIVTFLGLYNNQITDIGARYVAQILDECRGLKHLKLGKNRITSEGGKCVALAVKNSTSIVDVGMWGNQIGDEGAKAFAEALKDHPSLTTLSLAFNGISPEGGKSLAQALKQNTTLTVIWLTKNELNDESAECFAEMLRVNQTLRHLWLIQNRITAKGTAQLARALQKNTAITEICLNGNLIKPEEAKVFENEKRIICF

[5] = Metabolic stability in human liver microsomes assessed as intrinsic clearance at 1.25 uM preincubated for 5 mins followed by NADPH addition measured upto 120 mins by LC-MS/MS analysis; assay type: ADME, Microsome; settings: time < 125 min, read-out: CLH
[6] = Metabolic stability in mouse liver microsomes assessed as half life at 1.25 uM preincubated for 5 mins followed by NADPH addition measured upto 120 mins by LC-MS/MS analysis; assay type: ADME, Microsome; settings: time < 125 min
[7] = biological target: T2, Nucleotide-binding oligomerization domain-containing protein 1 (Mus musculus) (UniProt Q8BHB0); assay: Antagonist activity at mouse NOD1 expressed in HEK-Blue cells assessed as decrease in SEAP secretion at 1 uM incubated for 3 hrs followed by C12-iE-DAP stimulation for 20 hrs by spectrophotometry relative to control; assay type: cell-based; settings: HEK-Blue mNOD1, filed as antagonist, time 23.0 hrs
T2 sequence (whole entry): T1 sequence (Q8BHB0 whole entry)

[8] = Metabolic stability in human liver microsomes assessed as hepatic clearance at 1.25 uM preincubated for 5 mins followed by NADPH addition measured upto 120 mins by LC-MS/MS analysis; assay type: ADME, Microsome; settings: time < 125 min
[9] = biological target: T2, Nucleotide-binding oligomerization domain-containing protein 1 (Mus musculus); assay: Antagonist activity at mouse NOD1 expressed in HEK-Blue cells assessed as decrease in SEAP secretion at 5 uM incubated for 3 hrs followed by C12-iE-DAP stimulation for 20 hrs by spectrophotometry relative to control; assay type: cell-based
[10] = biological target: T3, Nucleotide-binding oligomerization domain-containing protein 1 (Homo sapiens, UniProt Q9Y239); assay: Antagonist activity at human NOD1 expressed in HEK-Blue cells assessed as decrease in SEAP secretion incubated for 3 hrs followed by C12-iE-DAP stimulation for 20 hrs by spectrophotometry; assay type: cell-based, HEK-Blue hNOD1
T3 sequence (Q9Y239 whole entry): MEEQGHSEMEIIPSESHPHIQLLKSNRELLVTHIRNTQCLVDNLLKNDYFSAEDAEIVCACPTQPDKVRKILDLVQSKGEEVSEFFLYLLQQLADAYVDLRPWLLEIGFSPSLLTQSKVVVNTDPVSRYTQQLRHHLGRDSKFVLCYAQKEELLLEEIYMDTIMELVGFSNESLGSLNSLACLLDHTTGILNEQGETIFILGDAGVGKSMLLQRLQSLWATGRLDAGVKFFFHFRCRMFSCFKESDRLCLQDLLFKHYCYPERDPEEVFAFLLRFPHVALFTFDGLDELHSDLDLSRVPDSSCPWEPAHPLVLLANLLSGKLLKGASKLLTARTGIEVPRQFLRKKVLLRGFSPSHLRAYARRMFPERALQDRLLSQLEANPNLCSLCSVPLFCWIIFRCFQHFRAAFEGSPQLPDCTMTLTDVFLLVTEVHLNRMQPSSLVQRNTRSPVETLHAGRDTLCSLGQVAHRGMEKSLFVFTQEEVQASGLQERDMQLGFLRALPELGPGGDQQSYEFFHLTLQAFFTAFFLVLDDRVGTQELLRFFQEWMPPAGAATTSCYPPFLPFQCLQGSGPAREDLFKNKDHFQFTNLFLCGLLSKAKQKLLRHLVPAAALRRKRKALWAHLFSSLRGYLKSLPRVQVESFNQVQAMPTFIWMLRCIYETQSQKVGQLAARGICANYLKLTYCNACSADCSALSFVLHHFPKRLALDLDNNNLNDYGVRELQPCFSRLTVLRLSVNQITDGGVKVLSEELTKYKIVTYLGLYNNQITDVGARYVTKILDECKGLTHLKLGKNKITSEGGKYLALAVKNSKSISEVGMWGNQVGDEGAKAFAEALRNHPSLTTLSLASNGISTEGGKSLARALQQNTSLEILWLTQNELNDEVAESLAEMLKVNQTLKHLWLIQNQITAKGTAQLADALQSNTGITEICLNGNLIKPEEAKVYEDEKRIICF

[11] = Solubility of compound in phosphate buffer at pH 7.2 to 7.4; assay type: physicochemical
[12] = biological target: T4, Nucleotide-binding oligomerization domain-containing protein 2 (Homo sapiens, UniProt Q9HC29); assay: Antagonist activity at human NOD2 expressed in HEK293 cells assessed as decrease in MDP-stimulated IL-8 release incubated for 24 hrs by fluorescence based assay; assay type: cell-based
[13] = biological target: T4, Nucleotide-binding oligomerization domain-containing protein 2; assay: Inhibition of human NOD2 at 1 uM relative to control
[14] = biological target: T5, Nucleotide-binding oligomerization domain-containing protein 2 (Mus musculus) (UniProt Q8K3Z0); assay: Inhibition of mouse NOD2 at 1 uM relative to control
T5 sequence (whole entry): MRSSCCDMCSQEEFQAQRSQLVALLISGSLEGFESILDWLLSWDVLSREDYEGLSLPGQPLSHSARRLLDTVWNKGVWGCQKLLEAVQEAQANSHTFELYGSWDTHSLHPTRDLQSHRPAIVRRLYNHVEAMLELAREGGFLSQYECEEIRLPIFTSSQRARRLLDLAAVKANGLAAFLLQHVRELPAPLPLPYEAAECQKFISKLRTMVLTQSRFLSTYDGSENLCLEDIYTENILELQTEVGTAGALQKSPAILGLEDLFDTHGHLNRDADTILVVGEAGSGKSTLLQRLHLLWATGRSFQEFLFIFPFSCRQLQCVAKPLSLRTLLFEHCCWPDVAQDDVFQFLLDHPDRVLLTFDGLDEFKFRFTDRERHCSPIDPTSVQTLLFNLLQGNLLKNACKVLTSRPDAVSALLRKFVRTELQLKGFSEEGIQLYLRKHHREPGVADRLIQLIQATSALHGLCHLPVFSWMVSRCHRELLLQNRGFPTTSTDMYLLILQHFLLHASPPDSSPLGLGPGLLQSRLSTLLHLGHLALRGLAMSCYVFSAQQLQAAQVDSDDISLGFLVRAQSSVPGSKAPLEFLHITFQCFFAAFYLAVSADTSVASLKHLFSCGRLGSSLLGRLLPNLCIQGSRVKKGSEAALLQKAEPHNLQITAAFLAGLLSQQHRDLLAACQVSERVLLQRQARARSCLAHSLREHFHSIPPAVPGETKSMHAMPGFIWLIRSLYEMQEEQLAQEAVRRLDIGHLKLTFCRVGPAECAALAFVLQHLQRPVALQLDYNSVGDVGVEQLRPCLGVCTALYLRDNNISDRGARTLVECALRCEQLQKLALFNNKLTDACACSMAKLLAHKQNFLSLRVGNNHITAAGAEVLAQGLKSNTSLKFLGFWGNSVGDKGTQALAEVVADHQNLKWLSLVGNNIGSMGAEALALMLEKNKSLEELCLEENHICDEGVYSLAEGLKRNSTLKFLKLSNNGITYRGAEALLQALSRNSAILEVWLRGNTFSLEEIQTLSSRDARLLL

[15] = biological target: Receptor-interacting serine/threonine-protein kinase 2 (Homo sapiens) (UniProt O43353); assay: Inhibition of RIP2 (unknown origin) at 10 uM relative to control
[16] = biological target: Toll-like receptor 4 (Homo sapiens) (UniProt O00206); assay: Inhibition of human TLR4 at 1 uM relative to control
[17] = HEK-Blue mNOD1, filed as antagonist, time 23.0 hrs

T4 sequence (Q9HC29 whole entry, the tested form may be a part): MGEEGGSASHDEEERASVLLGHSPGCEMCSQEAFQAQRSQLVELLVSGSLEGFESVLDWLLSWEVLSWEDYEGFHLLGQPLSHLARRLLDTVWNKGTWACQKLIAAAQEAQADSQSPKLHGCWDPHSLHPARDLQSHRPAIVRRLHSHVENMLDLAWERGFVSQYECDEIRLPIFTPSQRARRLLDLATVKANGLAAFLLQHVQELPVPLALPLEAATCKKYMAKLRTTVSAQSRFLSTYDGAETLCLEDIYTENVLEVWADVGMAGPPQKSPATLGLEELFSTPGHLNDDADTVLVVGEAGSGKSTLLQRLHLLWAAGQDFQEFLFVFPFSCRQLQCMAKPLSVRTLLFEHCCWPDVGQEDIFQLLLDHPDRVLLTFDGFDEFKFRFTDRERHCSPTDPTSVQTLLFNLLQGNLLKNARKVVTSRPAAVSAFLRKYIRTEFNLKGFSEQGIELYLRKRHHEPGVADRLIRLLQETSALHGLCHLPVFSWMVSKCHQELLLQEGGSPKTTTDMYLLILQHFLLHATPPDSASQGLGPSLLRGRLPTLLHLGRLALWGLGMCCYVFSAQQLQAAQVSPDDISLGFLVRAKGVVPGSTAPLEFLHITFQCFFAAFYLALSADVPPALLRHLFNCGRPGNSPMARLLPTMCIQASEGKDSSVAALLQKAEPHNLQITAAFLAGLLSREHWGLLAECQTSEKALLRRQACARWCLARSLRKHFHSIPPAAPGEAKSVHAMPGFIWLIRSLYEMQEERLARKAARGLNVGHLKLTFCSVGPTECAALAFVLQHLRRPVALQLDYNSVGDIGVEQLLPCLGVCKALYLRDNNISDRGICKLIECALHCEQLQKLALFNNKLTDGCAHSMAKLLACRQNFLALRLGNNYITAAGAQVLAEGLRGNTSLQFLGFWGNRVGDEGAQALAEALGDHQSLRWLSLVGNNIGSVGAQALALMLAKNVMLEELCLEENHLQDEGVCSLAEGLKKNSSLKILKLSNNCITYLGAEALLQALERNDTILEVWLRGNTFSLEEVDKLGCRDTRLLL
Toll-like receptor 4 (Homo sapiens), sequence (O00206 whole entry): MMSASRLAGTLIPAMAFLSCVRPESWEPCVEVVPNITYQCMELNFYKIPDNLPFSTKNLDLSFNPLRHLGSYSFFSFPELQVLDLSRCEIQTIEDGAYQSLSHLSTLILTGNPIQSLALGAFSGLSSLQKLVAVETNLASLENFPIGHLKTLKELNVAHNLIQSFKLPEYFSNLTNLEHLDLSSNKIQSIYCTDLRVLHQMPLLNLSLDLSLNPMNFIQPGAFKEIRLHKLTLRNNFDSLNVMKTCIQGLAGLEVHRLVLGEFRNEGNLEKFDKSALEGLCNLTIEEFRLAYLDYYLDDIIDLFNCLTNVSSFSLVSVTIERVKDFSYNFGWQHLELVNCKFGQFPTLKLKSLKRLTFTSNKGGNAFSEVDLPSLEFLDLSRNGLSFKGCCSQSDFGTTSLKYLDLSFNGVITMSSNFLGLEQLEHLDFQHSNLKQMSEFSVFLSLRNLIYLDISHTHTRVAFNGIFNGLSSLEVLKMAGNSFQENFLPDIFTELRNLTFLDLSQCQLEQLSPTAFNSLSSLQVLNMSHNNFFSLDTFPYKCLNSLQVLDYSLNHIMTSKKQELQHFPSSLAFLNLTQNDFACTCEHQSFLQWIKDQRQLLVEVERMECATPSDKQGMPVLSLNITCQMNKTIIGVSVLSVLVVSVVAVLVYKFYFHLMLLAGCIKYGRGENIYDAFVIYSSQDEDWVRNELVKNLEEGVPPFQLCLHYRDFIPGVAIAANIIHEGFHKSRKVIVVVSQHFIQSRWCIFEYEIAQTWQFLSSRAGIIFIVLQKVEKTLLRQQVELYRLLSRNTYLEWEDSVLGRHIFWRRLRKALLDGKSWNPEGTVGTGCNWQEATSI
Receptor-interacting serine/threonine-protein kinase 2 (Homo sapiens), sequence (O43353 whole entry): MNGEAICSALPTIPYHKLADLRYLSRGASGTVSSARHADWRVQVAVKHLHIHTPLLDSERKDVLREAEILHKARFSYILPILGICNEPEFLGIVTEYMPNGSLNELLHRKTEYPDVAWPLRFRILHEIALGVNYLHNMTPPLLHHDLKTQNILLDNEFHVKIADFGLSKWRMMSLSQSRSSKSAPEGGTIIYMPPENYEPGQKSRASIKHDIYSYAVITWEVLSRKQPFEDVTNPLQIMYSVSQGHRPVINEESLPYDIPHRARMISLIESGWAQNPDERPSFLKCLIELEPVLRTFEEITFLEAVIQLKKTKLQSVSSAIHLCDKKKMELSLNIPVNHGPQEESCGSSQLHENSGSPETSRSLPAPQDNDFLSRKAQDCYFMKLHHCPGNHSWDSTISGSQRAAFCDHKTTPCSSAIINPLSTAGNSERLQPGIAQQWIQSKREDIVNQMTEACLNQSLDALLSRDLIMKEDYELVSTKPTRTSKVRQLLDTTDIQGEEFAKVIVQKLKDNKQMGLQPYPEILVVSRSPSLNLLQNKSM

Structure (SMILES) | IC50 [4] | inhibition [7] | inhibition ([9]; HEK-Blue mNOD1, time 23.0 hrs) | IC50 [10] | other results
O=c1c2cc(Cl)cnc2nc(Cl)n1-c1ccc(Cl)c(NS(=O)(=O)c2ccccc2F)c1 | 187 nM | 84.3% |  |  | half-life at 1.25 µM [1]: 28 min; microsomal CLint at 1.25 µM [2]: 99.9 µL/min/mg; CLhep predicted at 1.25 µM [3]: 73.2 mL/min/kg; microsomal CLint at 1.25 µM [5]: 49.4 µL/min/mg; half-life at 1.25 µM [6]: 13.9 min; CLhep predicted at 1.25 µM [8]: 15.2 mL/min/kg
O=c1c2cc(Cl)ccc2nc(SCCOc2ccc(F)cc2)n1-c1ccc(Cl)c(NS(=O)(=O)c2ccccc2F)c1 |  |  | < 10% | 746 nM | 
C=CC(=O)Nc1nc2ccc(Cl)cc2c(=O)n1-c1ccc(Cl)c(NS(=O)(=O)c2ccccc2F)c1 | 7210 nM |  |  | 27 nM | inhibition [9, 17]: 53.3%
O=c1c2cc(Cl)ncc2nc(Cl)n1-c1ccc(Cl)c(NS(=O)(=O)c2ccccc2F)c1 | 118 nM | 85.6% |  | 1.8 nM | half-life at 1.25 µM [1]: 115 min; microsomal CLint at 1.25 µM [2]: 26.2 µL/min/mg; CLhep predicted at 1.25 µM [3]: 48 mL/min/kg; microsomal CLint at 1.25 µM [5]: 12 µL/min/mg; half-life at 1.25 µM [6]: 53 min; CLhep predicted at 1.25 µM [8]: 8.3 mL/min/kg
Cc1nc2ccc(Cl)cc2c(=O)n1-c1ccc(Cl)c(N2Cc3ccccc3S2(=O)=O)c1 |  |  | 14.5% | 11200 nM | 
O=C(CSc1nc2ccc(Cl)cc2c(=O)n1-c1ccc(Cl)c(NS(=O)(=O)c2ccccc2F)c1)Nc1ccccc1 |  |  | < 10% | 44 nM | 
Nc1nc2ccc(Cl)cc2c(=O)n1-c1ccc(Cl)c(NS(=O)(=O)c2ccccc2F)c1 |  |  | 27.3% | 44 nM | 
CC(C)NC(=O)CSc1nc2ccc(Cl)cc2c(=O)n1-c1ccc(Cl)c(NS(=O)(=O)c2ccccc2F)c1 |  |  | < 10% | 25 nM | 
CS(=O)(=O)c1ccc2nc(Cl)n(-c3ccc(Cl)c(NS(=O)(=O)c4ccccc4C#N)c3)c(=O)c2c1 | 66 nM |  |  |  | solubility [11]: 34.2 µg/mL (≈ 62.2 µM); half-life at 1.25 µM [6]: 20.6 min
O=c1c2cc(Cl)ccc2nc(Cl)n1-c1ccc(Cl)c(NS(=O)(=O)c2ccccc2F)c1 | 2630 nM | 42.7% |  | 40 nM | inhibition [9, 17]: 67.4%
O=c1c2cc(Cl)ccc2nc(C(F)(F)F)n1-c1ccc(Cl)c(NS(=O)(=O)c2ccccc2F)c1 | 5900 nM |  |  | 68 nM | inhibition [9, 17]: 73.2%
Cc1nc2ccc(NC(=O)c3cccc(NS(=O)(=O)c4ccc(F)cc4)c3)cc2s1 |  |  |  |  | IC50 [12]: > 50000 nM
O=c1c2nc(Cl)ccc2nc(Cl)n1-c1ccc(Cl)c(NS(=O)(=O)c2ccccc2F)c1 | 193 nM | 84.6% |  | 11 nM | half-life at 1.25 µM [1]: 104 min; microsomal CLint at 1.25 µM [2]: 35.4 µL/min/mg; CLhep predicted at 1.25 µM [3]: 54.7 mL/min/kg; microsomal CLint at 1.25 µM [5]: 13.4 µL/min/mg; half-life at 1.25 µM [6]: 39.1 min; CLhep predicted at 1.25 µM [8]: 8.9 mL/min/kg
O=c1c2ccncc2nc(Cl)n1-c1ccc(Cl)c(NS(=O)(=O)c2c(F)cccc2F)c1 | 77 nM | 83.7% |  | 5.2 nM | inhibition [13]: < 10%; solubility [11]: 5.7 µg/mL (≈ 11.8 µM); inhibition [14]: < 10%; inhibition [15]: < 10%; inhibition [16]: < 10%
